Data as given in patent US9227971B2, “Pyrazolo[1,5-a]pyrimidine compounds as mTOR inhibitors” (Merck Sharp & Dohme Corp., priority 2010, dated 2016).
Where two headings read alike, the source gives them in different places.

Key:
[1] = test system: phosphorylated AKT Ser473 (pAKT S473), mTORC2 activity, PC3 cells; test: mTOR target engagement assay, immunofluorescent cell-based, pAKT S473 readout (mTORC2 activity); conditions: Homo sapiens
Method in brief: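 After blocking, cells were stained overnight at 4 °C with anti-pAKT S473 antibody, then a fluorescent secondary; inhibition was read as reduced fluorescence intensity.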

[2] = test system: phosphorylated 4E-BP1 Thr37/46 (p4E-BP1 Thr37/46), mTORC1 activity, PC3 cells; test: mTOR target engagement assay, immunofluorescent cell-based, p4E-BP1 Thr37/46 readout (mTORC1 activity); conditions: Homo sapiens, read-out: p4E-BP1 Thr37/46 IC50
Experimental: The target engagement of mTOR kinase inhibitors was evaluated using an immunofluorescent cell-based assay. In this assay, inhibition of mTORC1 activity was measured by the reduction in the level of phosphorylated 4E-BP1^[…] (p4E-BP1 Thr37/46), and inhibition of mTORC2 activity was measured by the reduction of phosphorylated AKT^Ser473 (pAKT S473).
PC3 cells (prostate tumor cell-line that contains a mutation in the tumor suppressor PTEN, that promotes the phosphorylation and activation of AKT and 4E-BP1) were used in the immunofluorescence assay. PC3 cells were seeded on 384 well plates (black clear bottom, Matrix #4332) overnight. PC3 cells were then treated with 40 μl of the serially diluted test compounds (in 5% fetal bovine serum, F12 medium containing 0.25% DMSO) for ninety minutes at 37° C. The test compound solution was removed, and the plates were washed gently two times with 25 μl phosphate buffered saline (PBS). The cells were fixed by adding 25 μl of Prefer reagent (from Anatech LTD, Cat#414, a glyoxal fixative for fixing proteins within a cell) for sixty minutes followed by three washes with PBS. 5% Goat serum in PBS/0.3% Triton was used to block non-specific binding (60 minutes).
The primary antibodies targeting pAKT S473 and p4E-BP1 Thr37/46 were diluted into PBS/0.3% Triton and incubated with the cells overnight at 4° C. The antibodies targeting pAKTS473 (Cat#4085, Cell signaling) and p4E-BP1 Thr37/46 (Cat#2855, Cell signaling) were used at a 1:100 dilution. Plates were washed three times with PBS/0.1% Tween 20 before adding the secondary antibody at a 1:200 dilution. (goat anti-rabbit containing a fluorescent label, Alexa Fluor 488, Cat#A11008, Invitrogen) in PBS/0.3% Triton for 60 minutes.
Finally, the plates were washed three times with PBS/0.1% Tween 20 and the fluorescent intensity was read using an Analyst HT from Molecular Devices. The fluorescent intensity values from the serially diluted compound treatment group were analyzed using the Xlfit 4 program ([…]) (Formula 205: Y=Bottom+(Top-Bottom)/(1+(IC50/X)^Hillslope) to generate the IC50 value. Where Top is the maximum signal without Compound (+DMSO only) and Bottom represents maximum inhibition. Y is the fluorescence at some compound concentration. The control used to determine the fluorescent intensities for 100% pAKT S473 or 100% phosphorylated p4E-BP1 Thr37/46 were measured from untreated wells that contained only DMSO, instead of test compound.

[3] = PC-3, PC3 cells, compound treatment ninety minutes at 37° C.

Compound | IC50 ([1]; PC-3, Table 3-1, PC3 cells) [nM] | IC50 ([2]; PC-3, Table 3-1, PC3 cells) [nM] | IC50 [1, 3] [nM] | IC50 [2, 3] [nM] | also measured
Cc1nnc(C(=O)N2[C@@H]3CC[C@H]2C[C@H](c2nc4c(-c5ccc(-c6nc(C)c(C)s6)nc5)cnn4c(N)c2S(C)(=O)=O)C3)[nH]1 [Compound 3.197, ((1R,3s,5S)-3-(7-amino-3-(6-(4,5-dimethylthiazol-2-yl)pyridin-3-yl)-6-(methylsulfonyl)pyrazolo[1,5-a]pyrimidin-5-yl)-8-azabicyclo[3.2.1]octan-8-yl)(5-methyl-4H-1,2,4-triazol-3-yl]methanone] | 100 to 1000 | 100 to 1000 |  |  | 
CC(=O)c1c([C@@H]2C[C@H]3CC[C@@H](C2)N3C(=O)[C@H](C)O)nc2c(-c3ccc(-c4ccccc4)nc3)cnn2c1N [Compound 1.1.8, (S)-1-((1R,3R,5S)-3-(6-acetyl-7-amino-3-(6-phenylpyridin-3-yl)pyrazolo[1,5-a]pyrimidin-5-yl)-8-azabicyclo[3.2.1]octan-8-yl)-2-hydroxypropan-1-one] |  |  | 1 to 100 | 100 to 1000 | 
CS(=O)(=O)c1c([C@@H]2C[C@H]3CC[C@@H](C2)N3C(=O)c2nnc[nH]2)nc2c(-c3ccc(-c4ccc5c(c4)OCO5)nc3)cnn2c1N [Compound 3.52, ((1R,3s,5S)-3-(7-amino-3-(6-(benzo[d][1,3]dioxol-5-yl)pyridin-3-yl)-6-(methylsulfonyl)pyrazolo[1,5-a]pyrimidin-5-yl)-8-azabicyclo[3.2.1]octan-8-yl)(4H-1,2,4-triazol-3-yl)methanone] | 1 to 100 | 1 to 100 |  |  | 
COc1ccc(-c2ccc(-c3cnn4c(N)c(C(C)=O)c([C@@H]5C[C@H]6CC[C@@H](C5)N6C(=O)c5nnc[nH]5)nc34)cn2)c(F)c1 [Compound 1.1.47, 1-(5-((1R,3s,5S)-8-(4H-1,2,4-triazole-3-carbonyl)-8-azabicyclo[3.2.1]octan-3-yl)-7-amino-3-(6-(2-fluoro-4-methoxyphenyl)pyridin-3-yl)pyrazolo[1,5-a]pyrimidin-6-yl)ethanone] |  |  | 1 to 100 | 1 to 100 | 
CS(=O)(=O)c1c([C@@H]2C[C@H]3CC[C@@H](C2)N3C(=O)CO)nc2c(-c3ccc(C4(O)CCCC4)nc3)cnn2c1N [Compound 7.47, 1-((1R,3s,5S)-3-(7-amino-3-(6-(1-hydroxycyclopentyl)pyridin-3-yl)-6-(methylsulfonyl)pyrazolo [1,5-a]pyrimidin-5-yl)-8-azabicyclo[3.2.1]octan-8-yl)-2-hydroxyethanone] |  |  |  |  | IC50 ([1]; PC-3, Table 7-8, PC3 cells): 100 to 1000 nM; IC50 ([2]; PC-3, Table 7-8, PC3 cells): 100 to 1000 nM
CS(=O)(=O)c1c([C@@H]2C[C@H]3CC[C@@H](C2)N3C(=O)c2nnc[nH]2)nc2c(-c3ccc(-c4ccccn4)cc3)cnn2c1N [Compound 3.31, ((1R,3s,5S)-3-(7-amino-6-(methylsulfonyl)-3-(4-(pyridin-2-yl)phenyl)pyrazolo[1,5-a]pyrimidin-5-yl)-8-azabicyclo[3.2.1]octan-8-yl)(4H-1,2,4-triazol-3-yl)methanone] | 1 to 100 | 100 to 1000 |  |  | 
CNC(=O)N1[C@@H]2CC[C@H]1C[C@H](c1nc3c(-c4ccc(-c5ccccc5)nc4)cnn3c(N)c1C1CC1)C2 [Compound 4.4, (1R,3a,5S)-3-(7-amino-6-cyclopropyl-3-(6-phenylpyridin-3-yl)pyrazolo[1,5-a]pyrimidin-5-yl)-N-methyl-8-azabicyclo[3.2.1]octane-8-carboxamide] |  |  | 1 to 100 | 100 to 1000 | 
CC(=O)c1c([C@@H]2C[C@H]3CC[C@@H](C2)N3C(=O)c2nnc[nH]2)nc2c(-c3ccc(-c4ccc5nc[nH]c5c4)nc3)cnn2c1N [Compound 1.1.71, 1-(3-(6-(1H-benzo[d]imidazol-6-yl)pyridin-3-yl)-5-((1R,3s,5S)-8-(4H-1,2,4-triazole-3-carbonyl)-8-azabicyclo[3.2.1]octan-3-yl)-7-aminopyrazolo[1,5-a]pyrimidin-6-yl)ethanone] |  |  | 100 to 1000 | 100 to 1000 | 
CC(=O)c1c([C@@H]2C[C@H]3CC[C@@H](C2)N3C(=O)c2nnc[nH]2)nc2c(-c3cccnc3)cnn2c1N [Compound 1.1.80, 1-(5-((1R,3s,5S)-8-(4H-1,2,4-triazole-3-carbonyl)-8-azabicyclo[3.2.1]octan-3-yl)-7-amino-3-(pyridin-3-yl)pyrazolo[1,5-a]pyrimidin-6-yl)ethanone] |  |  | 100 to 1000 | 100 to 1000 | 
CS(=O)(=O)c1c([C@@H]2C[C@H]3CC[C@@H](C2)N3C(=O)c2nnc[nH]2)nc2c(-c3ccc(CO)nc3)cnn2c1N [Compound 7.35, ((1R,3s,5S)-3-(7-amino-3-(6-(hydroxymethyl)pyridin-3-yl)-6-(methylsulfonyl)pyra-zolo[1,5-a]pyrimidin-5-yl)-8-azabicyclo[3.2.1]octan-8-yl)(4H-1,2,4-triazol-3-yl)methanone] |  |  |  |  | IC50 ([1]; PC-3, Table 7-5, PC3 cells): 100 to 1000 nM; IC50 ([2]; PC-3, Table 7-5, PC3 cells): 100 to 1000 nM
CC(=O)c1c(C2CC3COCC(C2)N3C(=O)CO)nc2c(-c3ccc(-c4ccccc4)nc3)cnn2c1N (centres unmarked) [Compound 8.28, 1-(7-(6-acetyl-7-amino-3-(6-phenylpyridin-3-yl)pyrazolo[1,5-a]pyrimidin-5-yl)-3-oxa-9-azabicyclo[3.3.1]nonan-9-yl)-2-hydroxyethanone] |  |  |  |  | IC50 ([1]; PC-3, PC3 cells): 100 to 1000 nM; IC50 ([2]; PC-3, PC3 cells): 100 to 1000 nM
CCC(O)(CC)c1ccc(-c2cnn3c(N)c(C(C)=O)c([C@@H]4C[C@H]5CC[C@@H](C4)N5C(=O)c4nnc[nH]4)nc23)cn1 [Compound 1.1.85, 1-(5-((1R,3s,5S)-8-(4H-1,2,4-triazole-3-carbonyl)-8-azabicyclo[3.2.1]octan-3-yl)-7-amino-3-(6-(3-hydroxypentan-3-yl)pyridin-3-yl)pyrazolo[1,5-a]pyrimidin-6-yl)ethanone] |  |  | 1000 to 10000 | 1000 to 10000 | 
CC(=O)c1c(C2CC3CCCC(C2)N3C(=O)c2nc[nH]n2)nc2c(-c3ccc(-c4ccccc4)nc3)cnn2c1N (centres unmarked) [Compound 8.33, 1-(5-(9-(1H-1,2,4-triazole-3-carbonyl)-9-azabicyclo[3.3.1]nonan-3-yl)-7-amino-3-(6-phenylpyridin-3-yl)pyrazolo[1,5-a]pyrimidin-6-yl)ethanone] |  |  |  |  | IC50 ([1]; PC-3, PC3 cells): 100 to 1000 nM; IC50 ([2]; PC-3, PC3 cells): 100 to 1000 nM
NC(=O)c1c([C@@H]2C[C@H]3CC[C@@H](C2)N3C(=O)c2nc[nH]n2)nc2c(-c3ccc(-c4ccccc4)nc3)cnn2c1N [Compound 1.1.25, 5-((1R,3s,5S)-8-(1H-1,2,4-triazole-3-carbonyl)-8-azabicyclo[3.2.1]octan-3-yl)-7-amino-3-(6-phenylpyridin-3-yl)pyrazolo[1,5-a]pyrimidine-6-carboxamide] |  |  | 1 to 100 | 1 to 100 | 
CS(=O)(=O)c1c([C@@H]2C[C@H]3CC[C@@H](C2)N3C(=O)c2nc(N)n[nH]2)nc2c(-c3ccc(-c4ccccc4)nc3)cnn2c1N [Compound 3.98, (3-amino-1H-1,2,4-triazol-5-yl)((1R,3s,5S)-3-(7-amino-6-(methylsulfonyl)-3-(6-phenylpyridin-3-yl)pyrazolo[1,5-a]pyrimidin-5-yl)-8-azabicyclo[3.2.1]octan-8-yl)methanone] | 1 to 100 | 1 to 100 |  |  | 
Cc1cc(-c2cnn3c(N)c(S(C)(=O)=O)c([C@@H]4C[C@H]5CC[C@@H](C4)N5C(=O)c4nnc[nH]4)nc23)cnc1C(C)(C)O [Compound 3.157, ((1R,3s,5S)-3-(7-amino-3-(6-(2-hydroxypropan-2-yl)-5-methylpyridin-3-yl)-6-(methylsulfonyl)pyrazolo[1,5-a]pyrimidin-5-yl)-8-azabicyclo[3.2.1]octan-8-yl)(4H-1,2,4-triazol-3-yl)methanone] | 1 to 100 | 1 to 100 |  |  | 
